Measurements as given in patent US20190175557A1, “COMPOUNDS USEFUL FOR DECREASING INTERFERON LEVEL” (priority 2016, published 2019).

Experiments:
CXCR4 [1] = target: T1, CXCR4 (Homo sapiens, UniProt P61073); test: CXCR4 internalization and co-localization in pDC (microscopy); assay type: cell-based; conditions: cells incubated with CB, compared to untreated cells
Description: Cells were then incubated with anti-CXCR4 antibody (Biolegend, San Diego, Calif.) in saturation buffer PBS-BSA 0.5% for membrane staining or in permeabilizing buffer containing 1% saponin with monoclonal antibody anti-TRAIL (Biolegend, San Diego, Calif., USA). […] Nucleus was stained using DAPI (Molecular Probes, Paisley, UK). Slides were mounted with Fluoromount-G (eBioscience, CA, USA) and scanned with a Nikon Eclipse 90i Upright microscope (Nikon Instruments Europe, Badhoevedorp, The Netherlands) using a 100× Plan Apo VC piezo objective (NA 1.4) and Chroma bloc filters (ET-DAPI, ET-GFP) and were subsequently deconvoluted with a Meinel algorithm and 8 iterations and analyzed using Metamorph® (MDS Analytical Technologies, Winnersh, UK). TRAIL/DAPI/Overlay/Confocal plane: Representative 2D focal plan. Overlay with bright: Bright. […]
In other cases, cells were cultured overnight in media alone then were washed in ice-cold PBS-BSA 0.2% and stained with CXCR4 antibody (R&D Systems) for 1 hour at 4° C. […] Data are expressed as the mean percentage ±SEM mean channel fluorescence intensity (MFI) values for residual surface expression and intracellular staining. […]
7 pictures were taken from each slide for each Z section framing the nucleus. Quantification of the colocalization in the cytoplasm of purified pDC using Mander's Coefficient was obtained after analyze by JACoP pluging in ImageJ. […]

flu-exposed human PBMC = assay type: cell-based; conditions: cells pre-treated before Flu exposure, human PBMC
[2] = test system: HIV or LPS stimulated monocytes; test: IFN-γ mRNA in monocytes stimulated with HIV or LPS (RT-qPCR); assay type: cell-based; conditions: RT-qPCR normalized to RPL13A
Description: Data shown are representative of two independent experiments.
Monocytes were pre-incubated with clobenpropit (CB), IT1t or chloroquine before being activated by HIV and LPS. IFN-γ levels were measured by RT-qPCR and normalized to RPL13A mRNA expression.

HIV-stimulated pDC = test: Activation markers and cytokine mRNA in HIV-stimulated pDC (RT-qPCR, flow cytometry); assay type: cell-based, human
[3] = test system: human Flu-activated primary PBMC; test: cells; assay type: cell-based; conditions: read-out: EC50
CXCR4 [4] = target: T1, CXCR4
H4R = H4R (Homo sapiens, UniProt Q9H3N8); assay type: cell-based
H4R, sequence (Q9H3N8 whole entry): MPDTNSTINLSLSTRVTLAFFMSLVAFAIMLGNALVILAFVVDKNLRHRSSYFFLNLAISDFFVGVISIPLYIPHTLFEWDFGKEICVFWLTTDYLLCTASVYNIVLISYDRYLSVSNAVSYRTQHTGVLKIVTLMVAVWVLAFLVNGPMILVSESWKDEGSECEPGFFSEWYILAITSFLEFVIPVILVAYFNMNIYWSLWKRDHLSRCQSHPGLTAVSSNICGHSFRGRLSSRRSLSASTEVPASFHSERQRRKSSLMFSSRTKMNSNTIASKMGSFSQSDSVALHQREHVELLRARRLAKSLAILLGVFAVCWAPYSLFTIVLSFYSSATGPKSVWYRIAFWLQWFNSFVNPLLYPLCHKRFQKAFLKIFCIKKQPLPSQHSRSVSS

CXCR4 [5] = target: T1, CXCR4; conditions: Jurkat cells, 1 mM, 4° C. for 30 min
Flu-stimulated pDC = test: IFN-α production and membrane TRAIL by pDC cultured with Flu or Dengue; assay type: cell-based, human
Description: PBMC were seeded at 1.10^6/1 mL or purified pDC were seeded at 5.10^4/100 μl and then stimulated with the following viruses: inactivated AT-2 HIV-1MN (CXCR4 co-receptor specific) or AT-2 HIV-1ADA (CCR5 co-receptor specific) at 60 ng/mL p24^CA equivalent (provided by J. D. Lifson (SAIC-NCI, Frederick, Md.)), Infectious human Influenza A/PR/8/34 virus (Flu), titer 1:8192 at dilution 1:1000 or DENV-2 16681 at MOI 10. Infectious HIV-1MN [tissue culture 50% infective dose (TCID50)=[…]] and HIV-1ADA (TCID50=1,000) were used at the same concentration. Purified pDC were pre-treated with amino compounds for 1 hour, following overnight stimulation with virus. Supernatants were collected for cytokine detection. Microvesicles isolated from uninfected cell cultures matched to the culture to produce the virus were used as negative control (Mock).
The compounds were added in pDC culture at 10 μM (or other if specified) 1 hour before stimulation or not of the different viruses. For histamine, X-vivo culture media (Lonza) was used in order to avoid histaminases.
Cells were pre-incubated 1 hour with AMD (20 μM) (Sigma-Aldrich, MO, USA) prior to CB or histamine incubation. pDC were cultured in the presence of […] of the oligodinucleotide A151 (TTAGGG) ODN (Integrated DNA Technologies, Coralville, Iowa). […]

[6] = Solubility of test compounds

T1 sequence (P61073 whole entry): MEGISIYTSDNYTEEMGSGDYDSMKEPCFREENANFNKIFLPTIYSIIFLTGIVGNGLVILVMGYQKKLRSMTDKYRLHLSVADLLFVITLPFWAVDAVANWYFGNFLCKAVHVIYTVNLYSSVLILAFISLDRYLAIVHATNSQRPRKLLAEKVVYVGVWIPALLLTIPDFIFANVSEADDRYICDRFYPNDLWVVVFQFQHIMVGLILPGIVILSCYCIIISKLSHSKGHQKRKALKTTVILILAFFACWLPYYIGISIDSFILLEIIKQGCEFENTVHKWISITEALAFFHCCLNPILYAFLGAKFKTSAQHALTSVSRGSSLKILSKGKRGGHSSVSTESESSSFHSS

NC(=NCc1ccc(Cl)cc1)SCCCc1cnc[nH]1 [Clobenpropit, clobenpropit]
intracellular / extracellular CXCR4 in pDC (CXCR4 [1]): most of CXCR4 was detected intracellularly
IFN-α/β and IFN-λ2/3 mRNA levels (flu-exposed human PBMC): significantly reduced
IFN-γ expression by HIV or LPS stimulated monocytes [2]: inhibit
iNOS or IL-15 gene expression (HIV-stimulated pDC; HIV-1-stimulated pDC, RT-qPCR): neither CB nor FFN-511 affected
transcription of virus-induced genes (TRAIL, IFNs, IL6, IL8, IL10, CXCL10, ISG56) induced in pDC by HIV-1 (HIV-stimulated pDC; RT-qPCR profiling, normalized to RPL13A): dramatically inhibited
EC50 [3]: 24 ± 2 µM
effect of CXCR4 silencing on the inhibitory effect (CXCR4 [4]; pDC activated by a CCR5-tropic (R5) HIV-1 and Flu): blocked
effect of CXCR4 gene silencing on the inhibitory effect on type I IFN and TRAIL (CXCR4 [4]; pDC stimulated by CXCR4-tropic HIV-1): suppressed
effect of H4R knock down on inhibitory activity on IFN-α, IFN-β and TRAIL productions by HIV-stimulated pDC (H4R): did not block
binding of the CXCR4 antibody 12G5 on T cells (CXCR4 [5]): inhibited
IFN-α production and membrane TRAIL expression by pDC cultured with Flu and Dengue (Flu-stimulated pDC): strongly inhibited
solubility ([6]; PBS, aqueous buffer): > 50 mg/mL
solubility ([6]; water): > 50 mg/mL
